Measurements as given in patent US20060251651A1, “Antagonist and agonist which bind to a strong binding site of chemokine receptor” (priority 2002, published 2006).
pIC50: −log10 of the molar value. “And” between values parts separate entries of the source, which are not always exact repeats. Equal values may be shown once. “Also recorded” adds a separate entry of the source. Read-outs that look alike come from different tables or passages of the source.

Columns and labels:
hCCR5 [1] = molecular target: T1, hCCR5 (Homo sapiens, UniProt P51681); assay: Ligand binding inhibition test for CCR5 under severe washing condition; design: expressed in transfected cells; host or cells: CHO-dhfr(-) stably transfected with pEF-BOS-bsr/hCCR5; details: for pIC50: hCCR5-CHO cells, compound 40 minutes, washed 8 times with PBS, 4 hours at 37° C., then radioisotope-labeled ligand; for inhibitory activity, times higher than that of SCH-351125 / inhibitory activity, times higher than that of TAK-779: ratio of IC50 values under severe washing condition
T1 sequence (P51681 whole entry): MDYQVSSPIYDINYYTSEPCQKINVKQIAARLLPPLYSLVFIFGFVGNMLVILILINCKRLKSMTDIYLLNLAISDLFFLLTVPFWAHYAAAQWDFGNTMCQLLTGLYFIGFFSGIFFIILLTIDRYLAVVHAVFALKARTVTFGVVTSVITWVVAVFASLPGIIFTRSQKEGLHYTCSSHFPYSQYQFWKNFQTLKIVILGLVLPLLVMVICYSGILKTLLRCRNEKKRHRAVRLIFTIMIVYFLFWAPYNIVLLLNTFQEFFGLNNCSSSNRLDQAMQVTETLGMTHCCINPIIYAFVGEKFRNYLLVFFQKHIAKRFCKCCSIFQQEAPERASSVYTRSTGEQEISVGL
Procedure: Inhibitory effects of CCR5 antagonists (e.g., TAK-779, SCH-351125 and triazaspiro[5.5]undecane derivatives) were examined using a binding test system of CCR5 endogenous ligand to CCR5.
Human CCR5 expressing cells (hCCR5-CHO cells) were inoculated into a culture plate, cultured using a medium (Ham's F-12 medium/10% FBS/Antibiotic-Antimycotic) at 37° C. for 1 day (or 2 days) in a CO2 incubator of 5% CO2 and used in the test. The medium in each well was discarded, the cells were washed with an assay buffer (Ham's F-12 medium/0.5% BSA/20 mmol/l HEPES), and the assay buffer was added to each well. A compound to be tested having respective concentration was added thereto and incubated at room temperature for 40 minutes, and then the cells were washed 8 times with PBS (1 ml/well). The assay buffer was further added and incubated at 37° C. for 4 hours. After 4 hours, the assay buffer was discarded and a radioisotope-labeled ligand was added. The culture mixture containing the cells was incubated at room temperature for 40 minutes and then washed three times with 1 ml/well of ice-cooled PBS. The cells were lysed with 1 mol/I sodium hydroxide aqueous solution, and radioactivity of the cell lysate was measured using a γ counter.

hCCR5 [2] = molecular target: T1, hCCR5; assay: Anti-hCCR5 antibody binding inhibition test (flow cytometry); design: expressed in transfected cells; host or cells: Ba/F3 cells electroporated with linearised pEF-BOS-bsr/hCCR5, blasticidin-selected clone; details: hCCR5-CHO cells, 10 μmol/l of each compound, FITC-labeled antibody
Procedure: […] The medium was removed from the flask, and the cells were peeled off and recovered by adding 1 mmol/l EDTA/PBS. The recovered cells were washed once with PBS and again suspended in PBS, and then the number of cells was counted. After centrifugation and subsequent removal of the supernatant by suction, the cells were suspended in an assay buffer (0.5% FBS/Ham's F-12 medium). Each of the compounds to be tested was added to the cell suspension and incubated on ice. An FITC-labeled anti-hCCR5 antibody (45531.111 or 45523.111) or an FITC-labeled isotype control antibody was further added thereto and allowed to undergo the reaction on ice under shading. After the reaction, the cells were washed twice with ice-cooled PBS and again suspended in ice-cooled FACS buffer (2% FBS/PBS), and the amount (fluorescence intensity) of the bound anti-hCCR5 antibody was measured using a flow cytometer (BECTON DICKINSON).

hCCR5 [3] = molecular target: T1, hCCR5; assay: Inhibitory action upon the hCCR5 binding of tritium-labeled compound 1 (competition test); design: expressed in transfected cells; host or cells: Ba/F3 cells electroporated with linearised pEF-BOS-bsr/hCCR5, blasticidin-selected clone; details: hCCR5-CHO cells; for inhibition of the hCCR5 binding of tritium-labeled compound 1: when the concentration was increased
Procedure: Human CCR5 expressing cells (hCCR5-CHO cells) were inoculated into a culture plate, cultured using a medium (Ham's F-12 medium/10% FBS/Antibiotic-Antimycotic) at 37° C. for 1 day in a CO2 incubator of 5% CO2 and used in the test. The medium in each well was discarded, the cells were washed with an assay buffer (Ham's F-12 medium/0.5% BSA/20 mmol/l HEPES), and the assay buffer was added thereto. […] After incubation at room temperature for 2 hours, the cells were washed with 1 ml/well of ice-cooled D-PBS. The cells were lysed with 1 mol/l NaOH and neutralized, and then a scintillator (ACS II, Amersham) was added thereto. Radioactivity of each vial was measured using a liquid scintillation counter (TRI-CARB 2900TR, Perkin Elmer Life Sciences).

hCCR5 [4] = molecular target: T1, hCCR5; assay: Migration test induced by MIP-1α using hCCR5-Ba/F3 cells; assay type: cell-based; design: expressed in transfected cells; host or cells: Ba/F3 cells electroporated with linearised pEF-BOS-bsr/hCCR5, blasticidin-selected clone; details: 24 well transwell, 3 hours; read-out: IC50, inhibition of migration of hCCR5-Ba/F3 cells by MIP-1α
Procedure: Firstly, 0.5 ml of a medium containing […] was added to the lower chamber (transwell bottom) of a 24 well transwell plate. […] The migration was started by moving the upper chamber wells of the transwell plate to the lower chamber wells containing chemokine. […] Measurement of the number of cells was carried out using a flow cytometer (BECTON DICKINSON), and the number of cells inside the gate (FSC×SSC) was counted. The number of migrated cells was defined as their ratio (%) to the count when the firstly added cells were analyzed by FACS, and the IC50 value was calculated from the inhibitory activity for the DMSO control group.

[5] = Blood plasma levels of compound 1 in mouse after administration into abdominal cavity; assay type: in vivo; details: intraperitoneal, Balb/c mouse, read-out: blood plasma level
hCCR5 [6] = molecular target: T1, hCCR5; assay: Persistency of hCCR5 binding in the living body of mouse after compound administration; assay type: in vivo; design: expressed in transfected cells; host or cells: Ba/F3 cells electroporated with linearised pEF-BOS-bsr/hCCR5, blasticidin-selected clone; details: Balb/c mouse
Procedure: The peripheral blood was centrifuged using Lymphocyte-M to prepare PBMC, and the spleen was crushed, subjected to hemolytic treatment and then washed to obtain cells. The thus prepared cells were stained with PE-labeled anti-hCCR5 antibody (45531.111). CFSE-positive hCCR5-Ba/F3 Cells were detected by a flow cytometer, and fluorescence intensity (mean value) of PE-labeled anti-hCCR5 antibodies (2D7 and 45531.111) bound to the cells was measured.
The occupying ratio was calculated by the following formulae.
Correction Value [formula]
Receptor Occupying Ratio (R) [formula]

Row | Compound | pIC50 (hCCR5 [1]) | inhibition of binding of anti-hCCR5 antibody 45523.111 to hCCR5 expressing cells (hCCR5 [2]) | inhibition of binding of anti-hCCR5 antibody 45531.111 to hCCR5 expressing cells (hCCR5 [2]) | inhibition of the hCCR5 binding of tritium-labeled compound 1 (hCCR5 [3]) | pIC50 (hCCR5 [4]) | inhibitory activity, times higher than that of SCH-351125 (hCCR5 [1]) | inhibitory activity, times higher than that of TAK-779 (hCCR5 [1]) | inhibition of binding of anti-hCCR5 antibody 45531.111 to hCCR5 expressing cells (hCCR5 [2]; hydrochloride) | other results
1 | CCO/N=C(\c1ccc(Br)cc1)C1CCN(C2(C)CCN(C(=O)c3c(C)cc[n+]([O-])c3C)CC2)CC1 [SCH-351125] | 7.78 | inhibited binding; also recorded: strongly inhibited | weak | complete inhibition | 7.84 and 7.68 |  |  |  | 
2 | Cc1ccc(-c2ccc3c(c2)C=C(C(=O)Nc2ccc(C[N+](C)(C)C4CCOCC4)cc2)CCC3)cc1.[Cl-] [TAK-779] | 7.98 | only weakly; also recorded: weak inhibition | only weakly and weak | complete inhibition | 7.26 |  |  |  | 
3 | CCCCN1C(=O)[C@@H]([C@H](O)C2CCCCC2)NC(=O)C12CCN(Cc1ccc(Oc3ccc(C(=O)O)cc3)cc1)CC2.Cl [compound 1, (3R)-1-butyl-2,5-dioxo-3-((1R)-1-hydroxy-1-cyclohexylmethyl)-9-(4-(4-carboxyphenyloxy)phenylmethyl)-1,4,9-triazaspiro[5.5]undecane hydrochloride] |  | strongly inhibited |  |  |  | about 4 times | about 2.5 times | strongly inhibited; also recorded: strong | concentration at 0.5 h ([5]; 3 mg/kg into abdominal cavity): 352 nM; concentration at 4 h ([5]; 3 mg/kg into abdominal cavity): 5 nM; concentration at 8 h ([5]; 3 mg/kg into abdominal cavity): 1 nM; concentration at 0.5 h ([5]; 30 mg/kg into abdominal cavity): 1610 nM; concentration at 4 h ([5]; 30 mg/kg into abdominal cavity): 22 nM; concentration at 8 h ([5]; 30 mg/kg into abdominal cavity): 4 nM; competition with TAK-779 and SCH-351125 for CCR5 (hCCR5 [3]; displacement curves shifted in parallel, hydrochloride): competes; also recorded: Competitively antagonizes; hCCR5 occupied in the spleen (hCCR5 [6]; 3 mg/kg into abdominal cavity, 0.5 hours): 92%; hCCR5 occupied in the spleen (hCCR5 [6]; 3 mg/kg into abdominal cavity, 4 hours): 55%; hCCR5 occupied in the spleen (hCCR5 [6]; 3 mg/kg into abdominal cavity, 8 hours): 32%; hCCR5 occupied in the spleen (hCCR5 [6]; 30 mg/kg into abdominal cavity, 0.5 hours): 96%; hCCR5 occupied in the spleen (hCCR5 [6]; 30 mg/kg into abdominal cavity, 4 hours): 69%; hCCR5 occupied in the spleen (hCCR5 [6]; 30 mg/kg into abdominal cavity, 8 hours): 54%
4 | CCCCN1C(=O)[C@@H]([C@H](O)C2CCCCC2)NC(=O)C12CCN(Cc1ccc(Oc3ccc(C(=O)NC)cc3)cc1)CC2.Cl [compound 2, (3R)-1-butyl-2,5-dioxo-3-((1R)-1-hydroxy-1-cyclohexylmethyl)-9-(4-(4-methylaminocarbonylphenyloxy)phenylmethyl)-1,4,9-triazaspiro[5.5]undecane hydrochloride] | 8.82 | strongly inhibited |  |  |  | about 11 times | about 7 times | strongly inhibited; also recorded: strong | 
